Literature values in patent publication US20210319872A1, “DRUG AND DEVICE COMBINATION PRODUCTS WITH IMPROVED SAFETY AND EFFICACY PROFILES” (priority 2016, published 2021).
Read-outs that look alike come from different tables or passages of the source. Blank lines part the entries; values can stand above or below the compound they belong to.

[1] = Myelodysplastic syndrome, grade 3 or 4

Cataract, Grade 3 or 4 (Multiple myeloma, grade 3.4): 1.4% (grade 3.4)) | Multiple organ failure [1]: 1.4% | Pulmonary hypertension [1]: 1.4% | Myocardial infarction (in vivo): < 5% | Anemia, All grades (mantle cell lymphoma): 31% | Anemia, Grade 3 or 4 (mantle cell lymphoma): 11% | Arthralgia (mantle cell lymphoma): 8% | Asthenia (mantle cell lymphoma): 14% | Backache (mantle cell lymphoma): 13% | Constipation (mantle cell lymphoma): 16% | Cough (mantle cell lymphoma): 28% | Diarrhea (mantle cell lymphoma): 31% | Fatigue (mantle cell lymphoma): 34% | Fever (mantle cell lymphoma): 23% | Hypokalemia (mantle cell lymphoma): 13% | Neutropenia, All grades (mantle cell lymphoma): 49% | Neutropenia, Grade 3 or 4 (mantle cell lymphoma): 43% | Peripheral edema (mantle cell lymphoma): 16% | Pruritus (mantle cell lymphoma): 17% | Rash (mantle cell lymphoma): cell lymphoma, 22%) | Thrombocytopenia, All grades (mantle cell lymphoma): 36%) | Thrombocytopenia, Grade 3 or 4 (mantle cell lymphoma): 28% | Tumor flare (mantle cell lymphoma): 10% | Upper respiratory infection (mantle cell lymphoma): 13% | Atrial fibrillation, Grade 3 or 4 (multiple myeloma): 3.7% | Cramp (multiple myeloma): 33.4% | Rash (multiple myeloma): ≤ 26.1% | Tremor (multiple myeloma): 21.2% | Arthralgia (myelodysplastic syndrome): 21.6% | Asthenia (myelodysplastic syndrome): 14.9% | Backache (myelodysplastic syndrome): 20.9% | Constipation (myelodysplastic syndrome): 23.6% | Cough (myelodysplastic syndrome): 19.6% | Cramp (myelodysplastic syndrome): 18.2% | Diarrhea (myelodysplastic syndrome): 48.6% | Epistaxis (myelodysplastic syndrome): 14.9% | Fatigue (myelodysplastic syndrome): 31.1% | Fever (myelodysplastic syndrome): 20.9% | Insomnia (myelodysplastic syndrome): 10.1% | Nasopharyngitis (myelodysplastic syndrome): 23% | Neutropenia, All grades (myelodysplastic syndrome): 58.8% | Neutropenia, Grade 3 or 4 (myelodysplastic syndrome): 53.4% | Peripheral edema (myelodysplastic syndrome): 20.3% | Pneumonia (myelodysplastic syndrome): 11.5% | Pruritus (myelodysplastic syndrome): 41.9% | Rash (myelodysplastic syndrome): 35.8% | Upper respiratory infection (myelodysplastic syndrome): 14.9%
SMILES: Nc1cccc2c1CN(C1CCC(=O)NC1=O)C2=O (stereo not drawn) [Revlimid]
Pneumonitis [1]: syndrome, grade 3 or 4, 1.4%), Pulmonary embolism, Grade 3 or 4 | Hepatotoxicity (in vivo): 15% | Common side effect, Other (listed without frequency): Infectious disease | Serious side effect, Dermatologic (listed without frequency): Stevens-Johnson syndrome | Serious side effect, Hematologic (listed without frequency): Thrombosis | Serious side effect, Hepatic (listed without frequency): Liver failure | Serious side effect, Other (listed without frequency): Other: Angioedema, Multiple organ failure (Myelodysplastic | Serious side effect, Renal (listed without frequency): Renal: Interstitial nephritis, acute | Dyspnea (mantle cell lymphoma): 16.9%; mantle cell lymphoma, 18%), Epistaxis (Myelodysplastic | Hypoxia (mantle cell lymphoma): Respiratory: Hypoxia (Mantle cell lymphoma, 2%), Pleural | Pleural effusion (mantle cell lymphoma): effusion (Mantle cell lymphoma, 7%), Pneumonia (Multiple | Pneumonia (mantle cell lymphoma): mantle cell lymphoma, 14%), Pneumonitis (Myelodysplastic | Arthralgia (multiple myeloma): Musculoskeletal: Arthralgia (Multiple myeloma, 19%; | Asthenia (multiple myeloma): Neurologic: Asthenia (Multiple myeloma, 28.2%; myelodysplastic | Blurred vision (multiple myeloma): Ophthalmic: Blurred vision (Multiple myeloma, 17.3%) | Cataract, Grade 3 or 4 (multiple myeloma): Ophthalmic: Cataract, Grade 3 or 4 (Multiple myeloma, 9.6%; | Congestive heart failure, Grade 3 or 4 (multiple myeloma): failure, Grade 3 or 4 (multiple myeloma, 1.4%), Myocardial | Constipation (multiple myeloma): Gastrointestinal: Constipation (Multiple myeloma, 40.5%; | Cough (multiple myeloma): Respiratory: Cough (Multiple myeloma, 22.7%; myelodysplastic | Insomnia (multiple myeloma): Insomnia (Multiple myeloma, 27.6%; myelodysplastic syndrome, | Peripheral edema (multiple myeloma): Cardiovascular: Peripheral edema (multiple myeloma, 26.3%; | Pruritus (multiple myeloma): Dermatologic: Pruritus (Multiple myeloma, 7.6%; myelodysplastic | Upper respiratory infection (multiple myeloma): 15.5%), Upper respiratory infection (Multiple myeloma, 24.6%; | Anemia, All grades (myelodysplastic syndrome): 43.8%; myelodysplastic syndrome, 11.5%; mantle cell lymphoma, | Anemia, Grade 3 or 4 (myelodysplastic syndrome): 18.2%; myelodysplastic syndrome, 6.1%; mantle cell lymphoma, | Hypokalemia (myelodysplastic syndrome): 17.1%; myelodysplastic syndrome, 10.8%; mantle cell lymphoma, | Thrombocytopenia, All grades (myelodysplastic syndrome): 21.5%; myelodysplastic syndrome, 61.5%; mantle cell lymphoma, | Thrombocytopenia, Grade 3 or 4 (myelodysplastic syndrome): 12.2%; myelodysplastic syndrome, 50%; mantle cell lymphoma,

SMILES: OCCOCCN1CCN(C2=Nc3ccccc3Sc3ccccc32)CC1 [Seroquel (Quetiapine)]
Abdominal pain (in vivo): Gastrointestinal: Abdominal pain (3% to 7%), Constipation (2% to | Agitation (in vivo): Psychiatric: Agitation (6% to 20%) | Asthenia (in vivo): Neurologic: Asthenia (Up to 10%), Dizziness (8% to 19%), | Backache (in vivo): Musculoskeletal: Backache (3% to 5%) | Dizziness (in vivo): Neurologic: Asthenia (Up to 10%), Dizziness (8% to 19%), | Extrapyramidal disease (in vivo): Extrapyramidal disease (1.1% to 12.9%), Headache (17% to 21%), | Fatigue (in vivo): Other: Fatigue (3% to 14%), Pain (7%) | Headache (in vivo): Extrapyramidal disease (1.1% to 12.9%), Headache (17% to 21%), | Increased appetite (in vivo): 11%), Increased appetite (2% to 12%), Indigestion (2% to 7%), | Increased liver enzymes (in vivo): Hepatic: Increased liver enzymes (1% to 6%) | Indigestion (in vivo): 11%), Increased appetite (2% to 12%), Indigestion (2% to 7%), | Insomnia (in vivo): Insomnia (8% to 12%), Lethargy (1% to 5%), Somnolence (18% to | Lethargy (in vivo): Insomnia (8% to 12%), Lethargy (1% to 5%), Somnolence (18% to | Nasal congestion (in vivo): Respiratory: Nasal congestion (3% to 5%), Pharyngitis (4% to 6%) | Nausea (in vivo): Nausea (Pediatric, 6% to 10%), Vomiting (Pediatric, 7% to 8%), | Neutropenia (in vivo): Hematologic: Agranulocytosis, Leukopenia, Neutropenia (0.3% to | Orthostatic hypotension (in vivo): Orthostatic hypotension (Up to 7%), Tachycardia (Up to 6%) | Pain (in vivo): Other: Fatigue (3% to 14%), Pain (7%) | Pharyngitis (in vivo): Respiratory: Nasal congestion (3% to 5%), Pharyngitis (4% to 6%) | Prolonged QT interval (in vivo): Cardiovascular: Prolonged QT interval (0.1% to less than 1%), | Seizure (in vivo): Neurologic: Seizure (0.05% to 0.5%), Tardive dyskinesia | Serious side effect, Cardiovascular (in vivo): Sudden cardiac death, Syncope (0.3% to 1%) | Serious side effect, Endocrine metabolic (in vivo): Endocrine metabolic: Diabetic ketoacidosis | Serious side effect, Gastrointestinal (in vivo): Gastrointestinal: Pancreatitis | Serious side effect, Hematologic (in vivo): Hematologic: Agranulocytosis, Leukopenia, Neutropenia (0.3% to | Serious side effect, Immunologic (in vivo): Immunologic: Anaphylaxis | Serious side effect, Neurologic (in vivo): Neurologic: Seizure (0.05% to 0.5%), Tardive dyskinesia | Serious side effect, Other (in vivo): Other: Neuroleptic malignant syndrome | Serious side effect, Psychiatric (in vivo): Psychiatric: Suicidal thoughts | Serious side effect, Reproductive (in vivo): Reproductive: Priapism | Serum cholesterol raised (in vivo): Endocrine metabolic: Serum cholesterol raised (7% to 18%), Serum | Serum triglycerides raised (in vivo): triglycerides raised (8% to 28%), Weight gain (3% to 28%) | Somnolence (in vivo): Insomnia (8% to 12%), Lethargy (1% to 5%), Somnolence (18% to | Syncope (in vivo): Sudden cardiac death, Syncope (0.3% to 1%) | Tachycardia (in vivo): Orthostatic hypotension (Up to 7%), Tachycardia (Up to 6%) | Tremor (in vivo): 57%), Tremor (2% to 8%) | Vomiting (in vivo): Nausea (Pediatric, 6% to 10%), Vomiting (Pediatric, 7% to 8%), | Weight gain (in vivo): triglycerides raised (8% to 28%), Weight gain (3% to 28%) | Xerostomia (in vivo): Xerostomia (Adult, 9% to 44%; pediatric, 4% to 10%)

SMILES: Cc1nnc2n1-c1ccc(Cl)cc1C(c1ccccc1)=NC2 [Xanax (alprazolam)]
Cognitive disorder (in vivo): Neurologic: Cognitive disorder (28.8%), Confusion (1.5% to | Confusion (in vivo): Neurologic: Cognitive disorder (28.8%), Confusion (1.5% to | Constipation (in vivo): Gastrointestinal: Constipation (8.1% to 26.2%), Reduced salivation | Decrease in appetite (in vivo): Endocrine metabolic: Decrease in appetite (7.3% to 27.8%), | Fatigue (in vivo): Other: Fatigue (13.9% to 48.6%) | Increased appetite (in vivo): Increased appetite (7% to 32.7%), Weight increase (2.7% to 27.2%) | Memory impairment (in vivo): 40.1%), Lightheadedness (20.8%), Memory impairment (15.4% to | Reduced libido (in vivo): Reproductive: Reduced libido (6% to 14.4%) | Reduced salivation (in vivo): (32.8%), Xerostomia (10.2% to 14.7%) | Sedated (in vivo): 33.1%), Sedated (45.2%), Somnolence (23% to 76.8%) | Serious side effect, Dermatologic (in vivo): Dermatologic: Stevens-Johnson syndrome | Somnolence (in vivo): 33.1%), Sedated (45.2%), Somnolence (23% to 76.8%) | Weight increase (in vivo): Increased appetite (7% to 32.7%), Weight increase (2.7% to 27.2%) | Xerostomia (in vivo): (32.8%), Xerostomia (10.2% to 14.7%)

Asthenia (in vivo): 8% | Blurred vision (in vivo): 6% | Constipation (in vivo): 10% | Dizziness (in vivo): 44% | Nausea (in vivo): 29% | Pruritus (in vivo): 8% | Rash (in vivo): 7% | Vomiting (in vivo): 18% | Xerostomia (in vivo): 8%
SMILES: NC(=O)N1c2ccccc2C=Cc2ccccc21 [Equetro]
Ataxia (in vivo): 15% | Common side effect, Cardiovascular (listed without frequency): Cardiovascular: Hypotension | Common side effect, Neurologic (listed without frequency): Somnolence | Common side effect, Ophthalmic (listed without frequency): Nystagmus | Serious side effect, Dermatologic (listed without frequency): Stevens-Johnson syndrome | Serious side effect, Gastrointestinal (listed without frequency): Gastrointestinal: Pancreatitis | Serious side effect, Immunologic (listed without frequency): Immunologic: Drug hypersensitivity syndrome | Serious side effect, Neurologic (listed without frequency): Neurologic: Acute intermittent porphyria | Serious side effect, Other (listed without frequency): Other: Angioedema | Serious side effect, Respiratory (listed without frequency): Respiratory: Pulmonary hypersensitivity

SMILES: Nc1cc(N2CCCCC2)nc(N)[n+]1[O-] [Minoxidil]
Body fluid retention (incidence) (in vivo): Endocrine metabolic: Body fluid retention (7%), Hypernatremia | Electrocardiogram abnormal (incidence) (in vivo): abnormal (60%), Pericardial effusion (3%), Pericarditis, | Pericardial effusion (incidence) (in vivo): abnormal (60%), Pericardial effusion (3%), Pericarditis,

SMILES: CCOC(=O)[C@H](CCc1ccccc1)N[C@@H](C)C(=O)N1[C@H](C(=O)O)C[C@H]2CCCC[C@@H]21 [Trandolapril (Mavik)]
Cardiogenic shock (in vivo): Cardiovascular: Cardiogenic shock (3.8%), Intermittent | Cough (in vivo): Respiratory: Cough (1.9% to 35%) | Dizziness (in vivo): Neurologic: Dizziness (1.3% to 23%) | Hyperkalemia (in vivo): Endocrine metabolic: Hyperkalemia (0.3% to 5.3%) | Hypotension (in vivo): Cardiovascular: Hypotension (0.6% to 11%), Syncope (5.9%) | Indigestion (in vivo): Gastrointestinal: Indigestion (0.3% to 6.4%) | Intermittent claudication (in vivo): claudication (3.8%) | Serum blood urea nitrogen raised (in vivo): Renal: Serum blood urea nitrogen raised (9%) | Syncope (in vivo): Cardiovascular: Hypotension (0.6% to 11%), Syncope (5.9%)
